Measured values as given in ChEMBL document CHEMBL5226381, “Iterative Methylation Leads to 3-Methylchuangxinmycin Production in Actinoplanes tsinanensis CPCC 200056” (2023).
In brackets after ≈: the same amount, converted by molar mass. Activity calls are given as the source filed them. No cut-off for these calls is given here.

How the values were obtained:
[1] = system: Mycobacterium tuberculosis; assay: Antitubercular activity against INH/RIF-sensitive Mycobacterium tuberculosis clinical isolate S23 assessed as inhibition of bacterial growth incubated for 7 to 10 days by Alamar Blue staining based analysis; format: functional; conditions: time 7-10 day
[2] = system: Mycobacterium tuberculosis; assay: Antitubercular activity against INH/RIF-sensitive Mycobacterium tuberculosis clinical isolate S17 assessed as inhibition of bacterial growth incubated for 7 to 10 days by Alamar Blue staining based analysis; format: functional; conditions: time 7-10 day
[3] = system: Mycobacterium tuberculosis; assay: Antitubercular activity against Mycobacterium tuberculosis H37Rv assessed as inhibition of bacterial growth incubated for 7 to 10 days by Alamar Blue staining based analysis; format: functional; conditions: time 7-10 day
[4] = system: Stenotrophomonas maltophilia; assay: Antibacterial activity against Pseudomonas maltophilia ATCC 13636 assessed as inhibition of bacterial growth incubated for 18 hrs by agar dilution method; format: functional, organism-based
Escherichia coli [5] = assay: Antibacterial activity against Escherichia coli ATCC 35218 assessed as inhibition of bacterial growth incubated for 18 hrs by agar dilution method; format: functional, organism-based
Escherichia coli [6] = assay: Antibacterial activity against Escherichia coli 16-1 assessed as inhibition of bacterial growth incubated for 18 hrs by agar dilution method; format: functional, organism-based
Klebsiella pneumoniae [7] = assay: Antibacterial activity against Klebsiella pneumoniae ATCC 700603 assessed as inhibition of bacterial growth incubated for 18 hrs by agar dilution method; format: functional, organism-based
Proteus mirabilis = assay: Antibacterial activity against Proteus mirabilis ATCC 49565 assessed as inhibition of bacterial growth incubated for 18 hrs by agar dilution method; format: functional, organism-based
Klebsiella pneumoniae [8] = assay: Antibacterial activity against Klebsiella pneumoniae ATCC BAA-2146 assessed as inhibition of bacterial growth incubated for 18 hrs by agar dilution method; format: functional, organism-based
Acinetobacter baumannii = assay: Antibacterial activity against Acinetobacter baumannii ATCC 19606 assessed as inhibition of bacterial growth incubated for 18 hrs by agar dilution method; format: functional, organism-based
Pseudomonas aeruginosa = assay: Antibacterial activity against Pseudomonas aeruginosa ATCC 27853 assessed as inhibition of bacterial growth incubated for 18 hrs by agar dilution method; format: functional, organism-based
Klebsiella aerogenes = assay: Antibacterial activity against Enterobacter aerogenes ATCC 13048 assessed as inhibition of bacterial growth incubated for 18 hrs by agar dilution method; format: functional, organism-based
Enterobacter cloacae = assay: Antibacterial activity against Enterobacter cloacae ATCC 43560 assessed as inhibition of bacterial growth incubated for 18 hrs by agar dilution method; format: functional, organism-based
Escherichia coli [9] = assay: Antibacterial activity against Escherichia coli ATCC 25922 assessed as inhibition of bacterial growth incubated for 18 hrs by agar dilution method; format: functional, organism-based
Serratia marcescens = assay: Antibacterial activity against Serratia marcescens ATCC 21074 assessed as inhibition of bacterial growth incubated for 18 hrs by agar dilution method; format: functional, organism-based
[10] = system: Praffidenbacterium reggii; assay: Antibacterial activity against […] ATCC 31052 assessed as inhibition of bacterial growth incubated for 18 hrs by agar dilution method; format: functional
Escherichia coli [11] = assay: Antibacterial activity against Escherichia coli ATCC 2469 assessed as inhibition of bacterial growth incubated for 18 hrs by agar dilution method; format: functional, organism-based
Shigella flexneri = assay: Antibacterial activity against Shigella flexneri ATCC 12022 assessed as inhibition of bacterial growth incubated for 18 hrs by agar dilution method; format: functional, organism-based

Row | Compound | MIC [1] [µg/mL] | MIC [2] [µg/mL] | MIC [3] [µg/mL] | Activity [4] | Activity (Escherichia coli [5]) | Activity (Escherichia coli [6]) | Activity (Klebsiella pneumoniae [7]) | Activity (Proteus mirabilis) | Activity (Klebsiella pneumoniae [8]) | Activity (Acinetobacter baumannii) | Activity (Pseudomonas aeruginosa) | Activity (Klebsiella aerogenes) | Activity (Enterobacter cloacae) | Activity (Escherichia coli [9]) | Activity (Serratia marcescens) | Activity [10] | Activity (Escherichia coli [11]) | Activity (Shigella flexneri)
1 | NNC(=O)c1ccncc1 [ISONIAZID] | 0.125 (≈ 0.911 µM) | 0.125 (≈ 0.911 µM) | 0.06 (≈ 0.438 µM) |  |  |  |  |  |  |  |  |  |  |  |  |  |  | 
2 | O=C(O)[C@H]1Cc2c[nH]c3cccc(c23)S1 | 0.78 (≈ 3.56 µM) | 0.78 (≈ 3.56 µM) | 4 (≈ 18.2 µM) |  |  |  |  |  |  |  |  |  |  |  |  |  |  | 
3 | C[C@H]1c2c[nH]c3cccc(c23)S[C@H]1C(=O)O [CHUANGXINMYCIN] | 0.78 (≈ 3.34 µM) | 0.78 (≈ 3.34 µM) | 1 (≈ 4.29 µM) | inactive | inactive | inactive | inactive | inactive | inactive | inactive | inactive | inactive | inactive | inactive | inactive | inactive | inactive | 
4 | CO[C@H]1/C=C/O[C@@]2(C)Oc3c(C)c(O)c4c(O)c(c(/C=N/N5CCN(C)CC5)c(O)c4c3C2=O)NC(=O)/C(C)=C\C=C\[C@H](C)[C@H](O)[C@@H](C)[C@@H](O)[C@@H](C)[C@H](OC(C)=O)[C@@H]1C [RIFAMPIN] | 0.25 (≈ 0.304 µM) | 0.25 (≈ 0.304 µM) | 0.25 (≈ 0.304 µM) |  |  |  |  |  |  |  |  |  |  |  |  |  |  | 
5 | CC1(C)c2c[nH]c3cccc(c23)S[C@H]1C(=O)O | 12.5 (≈ 50.5 µM) | 50 (≈ 202 µM) | 32 (≈ 129 µM) | inactive | inactive | inactive | inactive | inactive | inactive | inactive | inactive | inactive | inactive | inactive | inactive | inactive | inactive | inactive
